Values quoted from earlier work as cited in PMC10761396, “Evaluation of new alternative methods for the identification of estrogenic, androgenic and steroidogenic effects: a comparative in vitro/in silico study” (Archives of Toxicology, 2023).

System: MCF-7 cells
Settings: cited from earlier work

## C=CCc1ccc(O)c(OC)c1 [eugenol]
  effect on MCF-7 cells: cytotoxicity
